This series can be described thus: Physical stability of the emulsions on storage (phase shift, recrystallization / crystal growth of the active principle). In kind it is physicochemical. As for the experimental part: According to the invention, another physical stability parameter observed is, in particular, the absence of recrystallization phenomenon at ambient temperature and at 4° C., over three months.
In the present text, the expression “active principle in dissolved form” means a molecular state dispersion in a liquid, no crystallization of the active principle being visible to the naked eye nor even using a crossed polarization optical microscope, or using other more accurate techniques such as electron microscopy. Preferably, the bioactive principle particles have a size below 1 nm.
Preferably, according to the invention, the expression “active principle in dissolved form” means a molecular state dispersion in a liquid for which no crystallization of the active principle is visible to the naked eye or using an optical microscope.

Data on one compound can be found in US20090004232A1, “BIOACTIVE PHARMACEUTICAL/COSMETIC COMPOSITIONS AND MIXED SOLUBILIZATION PROCESS FOR THE FORMULATION THEREOF” (priority 2005, published 2009).

Take `CC/C(=C\C=C\C(O)(CC)CC)c1cccc(OCc2ccc(CO)c(CO)c2)c1` [(4E,6E)-7-[3-(3,4-bishydroxymethylbenzyloxy)phenyl]-3-ethylnona-4,6-dien-3-ol]: the “physical stability of the emulsion over time” value (active principle solubilized in a single phase (hydrophilic phase or lipophilic phase)) is “have not made it possible to obtain an emulsion that was physically stable over time”. Besides, the “crystal growth phenomena of the active principle” value (single phase solubilization, storage at 4° C.) is listed as “appeared from the first month”.
